The values below come from patent publication US8404718B2, “Combinations of pyrazole kinase inhibitors” (Astex Therapeutics Limited, priority 2005, dated 2013).

For one test, the target named is T1, GSK3-β (Homo sapiens, UniProt P49841).
T1 construct: purchased Upstate Discovery
In words: Inhibitory activity against glycogen synthase kinase-3 (Protocol A or B). It counts as biochemical. Conditions: either Protocol A or Protocol B; read-out: IC50 in the GSK3-B assays. Here is the method:
The activities of the compounds of the invention as inhibitors of GSK-3 were determined using either Protocol A or Protocol B below.
The reaction is allowed to proceed for 3 hours before being stopped with an excess of ortho-phosphoric acid (5 μl at 2%). The filtration procedure is as for Activated CDK2/CyclinA assay above.
GSK3β (human) is diluted to a 10× working stock in 50 mM Tris pH 7.5, 0.1 mM EGTA, 0.1 mM sodium vanadate, 0.1% β-mercaptoethanol, 1 mg/ml BSA.
(specific activity approx 500 cpm/pmol, concentration as required).

The test system of test [1] is human colon carcinoma cell line HCT 116. As to the kind of experiment: Anti-proliferative activity, Alamar Blue assay. Format: cell-based. The conditions noted are these: 72 hours compound incubation, read-out: IC50, inhibition of cell growth, HCT 116. Here is the method:
The anti-proliferative activities of the combinations of the invention, as well as the individual components of the combinations, are determined by measuring the ability of the compounds to inhibition of cell growth in a number of cell lines. Inhibition of cell growth is measured using the Alamar Blue assay (Nociari, M. M, Shalev, A., Benias, P., Russo, C. Journal of Immunological Methods 1998, 213, 157-167). The method is based on the ability of viable cells to reduce resazurin to its fluorescent product resorufin. For each proliferation assay cells are plated onto 96 well plates and allowed to recover for 16 hours prior to the addition of inhibitor compounds for a further 72 hours. At the end of the incubation period 10% (v/v) Alamar Blue is added and incubated for a further 6 hours prior to determination of fluorescent product at […]. In the case of the non-proliferating cell assay cells are maintained at confluence for 96 hour prior to the addition of inhibitor compounds for a further 72 hours. The number of viable cells is determined by Alamar Blue assay as before. All cell lines are obtained from ECACC (European Collection of cell Cultures).
A general note: Alamar Blue is a resazurin reagent that responds to reducing activity.

The target of the next test is Activated CDK2/CyclinA (Homo sapiens, UniProt P24941). In words: Activated CDK2/CyclinA kinase inhibitory activity assay (IC50), Example 250A. It counts as biochemical. On the procedure: Compounds of the invention were tested for kinase inhibitory activity using the following protocol.
The reaction is allowed to proceed for 2 to 4 hours before being stopped with an excess of ortho-phosphoric acid (5 μl at 2%).
γ^33P-ATP which remains unincorporated into the histone H1 is separated from phosphorylated histone H1 on a Millipore MAPH filter plate. The wells of the MAPH plate are wetted with 0.5% orthophosphoric acid, and then the results of the reaction are filtered with a Millipore vacuum filtration unit through the wells. Following filtration, the residue is washed twice with 200 μl of 0.5% orthophosphoric acid. Once the filters have dried, 20 μl of Microscint 20 scintillant is added, and then counted on a Packard Topcount for 30 seconds.

T1 sequence (P49841 whole entry): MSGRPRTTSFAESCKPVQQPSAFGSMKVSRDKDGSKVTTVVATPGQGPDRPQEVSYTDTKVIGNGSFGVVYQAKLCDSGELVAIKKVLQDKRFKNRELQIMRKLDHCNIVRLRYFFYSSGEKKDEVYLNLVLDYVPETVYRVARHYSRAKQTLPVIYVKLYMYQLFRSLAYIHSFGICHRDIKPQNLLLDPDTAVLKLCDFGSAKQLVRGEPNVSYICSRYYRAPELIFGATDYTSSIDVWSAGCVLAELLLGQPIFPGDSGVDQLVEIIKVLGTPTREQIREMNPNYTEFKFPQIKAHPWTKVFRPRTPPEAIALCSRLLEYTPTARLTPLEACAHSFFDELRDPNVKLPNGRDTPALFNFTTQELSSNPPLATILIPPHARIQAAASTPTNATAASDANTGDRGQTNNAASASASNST

Turning to `CC(=O)Nc1c[nH]nc1C(=O)Nc1ccc(F)cc1` [Example 2, 4-Acetylamino-1H-pyrazole-3-carboxylic acid (4-fluoro-phenyl)-amide], the IC50 is < 10 µM at GSK3-β and < 100 µM in test [1].
Consider `O=C(Nc1c[nH]nc1C(=O)Nc1ccc(F)cc1)c1ccccc1` [Example 26, 4-Benzoylamino-1H-pyrazole-3-carboxylic acid (4-fluoro-phenyl)-amide], for which the concentration for half-maximal inhibition (IC50) is < 10 µM on GSK3-β and < 20 µM in test [1].
In the same order, the values of `Cc1sccc1C(=O)Nc1c[nH]nc1C(=O)Nc1ccc(F)cc1` [Example 48, 4-[(2-Methyl-thiophene-3-carbonyl)-amino]-1H-pyrazole-3-carboxylic acid (4-fluoro-phenyl)-amide] are < 10 µM and < 20 µM.
For `CN1CCC(NC(=O)c2n[nH]cc2NC(=O)c2c(F)cccc2F)CC1` [Example 53, 4-(2,6-Difluoro-benzoylamino)-1H-pyrazole-3-carboxylic acid (1-methyl-piperidin-4-yl)-amide], the values for the IC50 (at GSK3-β; in test [1]) were < 10 µM and < 20 µM, respectively.
For `O=C(NC1CCCCC1)c1n[nH]cc1NC(=O)c1c(F)cccc1F` [Example 65], in that order: < 10 µM and < 20 µM.
Consider `O=C(NC1CCNCC1)c1n[nH]cc1NC(=O)c1c(F)cccc1F` [Example 76], for which the IC50 was < 10 µM on GSK3-β and < 20 µM in test [1].
In the same order, the values of `CC(C)(C)C1CCC(NC(=O)c2c[nH]nc2NC(=O)c2c(F)cccc2F)CC1` (centres unmarked) [Example 77] are < 10 µM and < 20 µM.
Consider `O=C(NCCN1CCOCC1)c1n[nH]cc1NC(=O)c1c(F)cccc1F` [Example 84], for which, at GSK3-β, the IC50 is < 10 µM.
As to `O=C(NC1CCN(Cc2ccccc2)CC1)c1n[nH]cc1NC(=O)c1c(F)cccc1F` [Example 86], the results for the IC50 (on GSK3-β; in test [1]) were < 10 µM and < 20 µM, respectively.
As for `N[C@H]1CC[C@H](NC(=O)c2n[nH]cc2NC(=O)c2c(F)cccc2F)CC1` [Example 102], the results for the concentration for half-maximal inhibition (IC50) (at GSK3-β; in test [1]; on Activated CDK2/CyclinA) were < 10 µM, < 20 µM and < 20 µM, respectively.
As to `CC(C)N1CCC(NC(=O)c2n[nH]cc2NC(=O)c2c(F)cccc2F)CC1` [Example 106], the half-maximal inhibitory concentration (IC50) at GSK3-β is < 10 µM; in test [1], < 20 µM; against Activated CDK2/CyclinA it was < 20 µM.
As to `COc1cccc(F)c1C(=O)Nc1c[nH]nc1C(=O)NC1CCN(C(=O)OC(C)(C)C)CC1` [Example 119], the 50% inhibitory concentration (IC50) at GSK3-β is < 10 µM; in test [1], < 20 µM; against Activated CDK2/CyclinA, < 20 µM.
Turning to `CC(C)(C)C1CCC(NC(=O)c2n[nH]cc2NC(=O)c2ccc(F)cc2)CC1` (centres unmarked) [Example 122], the IC50 on GSK3-β is < 10 µM.
Consider `COc1cccc(F)c1C(=O)Nc1c[nH]nc1C(=O)NC1CCC(C(C)(C)C)CC1` (centres unmarked) [Example 123], for which the 50% inhibitory concentration (IC50) on GSK3-β was < 10 µM; in test [1], < 20 µM; against Activated CDK2/CyclinA, < 20 µM.
On to `CC(C)(C)C1CCC(NC(=O)c2n[nH]cc2NC(=O)c2ccc(Cl)cc2)CC1` (centres unmarked) [Example 126], for which, on GSK3-β, the half-maximal inhibitory concentration (IC50) is < 10 µM.
The same measure, in the same setting: for `CC(C)(C)C1CCC(NC(=O)c2n[nH]cc2NC(=O)c2ccccc2)CC1` (centres unmarked) [Example 127] the value was < 10 µM; for `CC(C)(C)C1CCC(NC(=O)c2n[nH]cc2NC(=O)c2ccc(OC(F)F)cc2)CC1` (centres unmarked) [Example 128], < 10 µM.
As for `CC(C)(C)C1CCC(NC(=O)c2n[nH]cc2NC(=O)c2cc(F)cc(F)c2)CC1` (centres unmarked) [Example 129], the IC50 on GSK3-β is < 10 µM.
On to `CS(=O)(=O)N1CCC(NC(=O)c2n[nH]cc2NC(=O)c2c(F)cccc2F)CC1` [Example 131], for which the concentration for half-maximal inhibition (IC50) is < 10 µM on GSK3-β, < 20 µM in test [1] and < 20 µM on Activated CDK2/CyclinA.
Consider `CC(C)(C)C1CCC(NC(=O)c2n[nH]cc2NC(=O)c2ccc(CN3CCCC3)o2)CC1` (centres unmarked) [Example 134], for which the figures for the IC50 (at GSK3-β; in test [1]; on Activated CDK2/CyclinA) were < 10 µM, < 20 µM and < 20 µM, respectively.
With `CC(C)(C)C1CCC(NC(=O)c2n[nH]cc2NC(=O)c2ccc(CN3CCOCC3)o2)CC1` (centres unmarked) [Example 135], the IC50 at GSK3-β was < 10 µM; in test [1], < 100 µM; on Activated CDK2/CyclinA, < 20 µM.
Regarding `Cc1oc(CN2CCOCC2)cc1C(=O)Nc1c[nH]nc1C(=O)NC1CCC(C(C)(C)C)CC1` (centres unmarked) [Example 138], the values for the concentration for half-maximal inhibition (IC50) (on GSK3-β; in test [1]) were < 10 µM and < 20 µM, respectively.
In the case of `O=C(Nc1c[nH]nc1C(=O)NC1CCNCC1)c1ccccc1` [Example 140], the values for the half-maximal inhibitory concentration (IC50) (on GSK3-β; in test [1]) were < 10 µM and < 20 µM, respectively.
In the same order, the values of `O=C(Nc1c[nH]nc1C(=O)NC1CCNCC1)c1ccc(F)cc1` [Example 141] are < 10 µM and < 20 µM.
For the compound `O=C(Nc1c[nH]nc1C(=O)NC1CCNCC1)c1cc(F)cc(F)c1` [Example 144], the half-maximal inhibitory concentration (IC50) is < 10 µM on GSK3-β and < 20 µM against Activated CDK2/CyclinA.
As for `O=C(Nc1c[nH]nc1C(=O)NC1CCNCC1)c1ccc(OC(F)F)cc1` [Example 145], the half-inhibitory concentration (IC50) at GSK3-β is < 10 µM; against Activated CDK2/CyclinA, < 20 µM.
With `Cc1onc(-c2ccccc2)c1C(=O)Nc1c[nH]nc1C(=O)NC1CCNCC1` [Example 146], the IC50 at GSK3-β was < 10 µM.
For `O=C(Nc1c[nH]nc1C(=O)NC1CCNCC1)c1ccc(N2CCOCC2)cc1Cl` [Example 151], the IC50 was < 10 µM on GSK3-β and < 20 µM in test [1].
For the compound `CN1CCC(NC(=O)c2n[nH]cc2NC(=O)c2c(Cl)cccc2Cl)CC1` [Example 187], the IC50 (in test [1]; at Activated CDK2/CyclinA) was < 20 µM throughout.
Turning to `Cc1ccc(C(=O)Nc2c[nH]nc2C(=O)NC2CCN(C)CC2)cc1` [Example 189], the IC50 (in test [1]; at Activated CDK2/CyclinA) was < 20 µM each time.
Turning to `COc1ccccc1C(=O)Nc1c[nH]nc1C(=O)NC1CCNCC1` [Example 190], the IC50 (in test [1]; at Activated CDK2/CyclinA) was < 20 µM throughout.
`O=C(NC1CCNCC1)c1n[nH]cc1NC(=O)c1c(Cl)cncc1Cl` [Example 194]: the half-inhibitory concentration (IC50) (in test [1]; against Activated CDK2/CyclinA) was < 20 µM each time.
On to `O=C(Nc1c[nH]nc1C(=O)NC1CCNCC1)c1ccccc1OC(F)(F)F` [Example 196], for which the IC50 (in test [1]; on Activated CDK2/CyclinA) was < 20 µM throughout.
As to `CCOc1ccccc1C(=O)Nc1c[nH]nc1C(=O)NC1CCNCC1` [Example 198], the IC50 (in test [1]; on Activated CDK2/CyclinA) was < 20 µM throughout.
Regarding `O=C(Nc1c[nH]nc1C(=O)NC1CCNCC1)c1ccccc1N1CCOCC1` [Example 199], the IC50 (in test [1]; at Activated CDK2/CyclinA) was < 20 µM in each case.
As to `O=C(Nc1c[nH]nc1C(=O)NC1CCNCC1)c1ccccc1OCc1ccccc1` [Example 200], the half-maximal inhibitory concentration (IC50) (in test [1]; against Activated CDK2/CyclinA) was < 20 µM each time.
Regarding `O=C(Nc1c[nH]nc1C(=O)NC1CCNCC1)c1ccccc1Br` [Example 201], the IC50 (in test [1]; against Activated CDK2/CyclinA) was < 20 µM in each case.
Turning to `COc1cccc(F)c1C(=O)Nc1c[nH]nc1C(=O)NC1CCN(C)CC1` [Example 202], the IC50 (in test [1]; at Activated CDK2/CyclinA) was < 20 µM throughout.
As for `CN1CCC(NC(=O)c2n[nH]cc2NC(=O)c2ccccc2OC(C)(C)C)CC1` [Example 203], the IC50 (in test [1]; against Activated CDK2/CyclinA) was < 20 µM throughout.
For the compound `COc1ccc(F)cc1C(=O)Nc1c[nH]nc1C(=O)NC1CCN(C)CC1` [Example 204], the IC50 (in test [1]; against Activated CDK2/CyclinA) was < 20 µM each time.
For the compound `O=C(N[C@H]1CCCNC1)c1n[nH]cc1NC(=O)c1c(Cl)cccc1Cl` [Example 208], the IC50 (in test [1]; at Activated CDK2/CyclinA) was < 20 µM throughout.
Take `COCCN1CCC(NC(=O)c2n[nH]cc2NC(=O)c2c(Cl)cccc2Cl)CC1` [Example 209]: the concentration for half-maximal inhibition (IC50) (in test [1]; against Activated CDK2/CyclinA) was < 20 µM each time.
Turning to `CN1CCC(NC(=O)c2n[nH]cc2NC(=O)c2ccccc2Cl)CC1` [Example 211], the IC50 (in test [1]; against Activated CDK2/CyclinA) was < 20 µM each time.
`CN1CCC(NC(=O)c2n[nH]cc2NC(=O)c2cc(Cl)ccc2Cl)CC1` [Example 212]: the 50% inhibitory concentration (IC50) (in test [1]; against Activated CDK2/CyclinA) was < 20 µM each time.
`CN1CCC(NC(=O)c2n[nH]cc2NC(=O)c2cccc(Cl)c2Cl)CC1` [Example 213]: the IC50 (in test [1]; against Activated CDK2/CyclinA) was < 20 µM each time.
For `CN1CCN(c2cc(F)cc(C(=O)Nc3c[nH]nc3C(=O)NC3CCCCC3)c2)CC1` [Example 215], the IC50 (in test [1]; at Activated CDK2/CyclinA) was < 20 µM in each case.

What is called IC50 is the midpoint of a concentration-inhibition curve.
